# According to article PMC10213797 (Acta Pharmaceutica Sinica. B, 2023):
# Key:
# [1] = target: Electrophorus electricus AChE (eeAChE); conditions: cited from earlier work
# [2] = target: horse serum BChE (eqBChE); conditions: cited from earlier work
# hMAO-A = target: T1, hMAO-A (Homo sapiens, UniProt P21397); assay: hMAO-A inhibition, horseradish-Amplex Red coupled assay; format: biochemical
# T1 sequence (P21397 1-527): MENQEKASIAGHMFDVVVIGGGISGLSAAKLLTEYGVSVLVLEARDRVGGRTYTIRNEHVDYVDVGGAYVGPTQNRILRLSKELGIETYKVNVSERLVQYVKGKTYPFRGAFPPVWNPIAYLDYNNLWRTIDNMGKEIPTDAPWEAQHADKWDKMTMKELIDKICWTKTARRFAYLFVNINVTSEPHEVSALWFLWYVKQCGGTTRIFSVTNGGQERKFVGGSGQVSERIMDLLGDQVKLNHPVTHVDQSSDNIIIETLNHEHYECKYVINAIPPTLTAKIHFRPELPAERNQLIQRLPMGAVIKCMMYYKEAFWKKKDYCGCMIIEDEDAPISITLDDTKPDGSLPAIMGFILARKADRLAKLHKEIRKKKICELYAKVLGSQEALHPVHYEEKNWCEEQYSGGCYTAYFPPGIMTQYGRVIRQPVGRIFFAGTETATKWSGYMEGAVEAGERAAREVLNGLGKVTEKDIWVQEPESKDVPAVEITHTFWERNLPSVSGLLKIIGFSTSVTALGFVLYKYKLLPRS
# hMAO-B = target: T2, hMAO-B (Homo sapiens, UniProt P27338); assay: hMAO-B inhibition, horseradish-Amplex Red coupled assay; format: biochemical
# T2 sequence (P27338 1-520): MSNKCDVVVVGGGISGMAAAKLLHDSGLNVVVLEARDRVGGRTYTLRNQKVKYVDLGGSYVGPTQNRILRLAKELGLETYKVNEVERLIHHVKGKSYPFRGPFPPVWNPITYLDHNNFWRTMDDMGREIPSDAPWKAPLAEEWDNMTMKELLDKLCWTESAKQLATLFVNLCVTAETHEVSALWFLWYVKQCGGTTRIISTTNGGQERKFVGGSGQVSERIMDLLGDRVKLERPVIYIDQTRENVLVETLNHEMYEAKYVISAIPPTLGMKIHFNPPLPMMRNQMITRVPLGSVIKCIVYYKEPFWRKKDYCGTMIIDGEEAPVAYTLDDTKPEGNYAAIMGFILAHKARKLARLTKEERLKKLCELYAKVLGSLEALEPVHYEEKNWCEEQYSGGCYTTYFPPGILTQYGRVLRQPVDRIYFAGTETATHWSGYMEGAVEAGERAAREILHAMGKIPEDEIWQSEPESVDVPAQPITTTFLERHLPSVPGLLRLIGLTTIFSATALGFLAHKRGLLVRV
# hBChE = hBChE (Homo sapiens, UniProt P06276); assay: hBChE inhibition, Ellman's method; format: biochemical; conditions: IC50 ± SEM hBChE, Table 1; n = 3, in triplicates
# Chain of hBChE (P06276 29-602): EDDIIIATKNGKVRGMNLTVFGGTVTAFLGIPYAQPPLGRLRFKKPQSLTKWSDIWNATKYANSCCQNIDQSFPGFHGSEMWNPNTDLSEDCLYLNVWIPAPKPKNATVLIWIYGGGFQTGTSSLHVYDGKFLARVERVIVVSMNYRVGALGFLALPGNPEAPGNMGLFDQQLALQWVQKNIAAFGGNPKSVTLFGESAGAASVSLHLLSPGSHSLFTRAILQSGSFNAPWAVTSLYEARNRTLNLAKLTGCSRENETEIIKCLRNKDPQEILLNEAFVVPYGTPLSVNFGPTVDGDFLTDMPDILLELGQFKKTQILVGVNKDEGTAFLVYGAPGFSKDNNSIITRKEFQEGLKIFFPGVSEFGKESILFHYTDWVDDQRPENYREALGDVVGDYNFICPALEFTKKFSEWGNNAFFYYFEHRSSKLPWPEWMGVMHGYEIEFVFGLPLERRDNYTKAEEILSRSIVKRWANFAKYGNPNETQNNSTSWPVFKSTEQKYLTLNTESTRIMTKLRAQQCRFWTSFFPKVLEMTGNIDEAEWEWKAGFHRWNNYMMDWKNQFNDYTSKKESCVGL
# [3] = DPPH radical-scavenging assay; conditions: means ± SEM (n = 2, in triplicates); for EC50: read-out: Radical-scavenging DPPH assay EC50
# Aβ1–42 = Aβ1–42 (Homo sapiens, UniProt P05067); assay: Aβ1–42 aggregation inhibition, ThT fluorescence assay; format: biochemical; conditions: 10 μmol/L ligand and 1.5 μmol/L Aβ1–42; mean ± SD (n ≥ 3)
# Chain of Aβ1–42 (P05067 672-713): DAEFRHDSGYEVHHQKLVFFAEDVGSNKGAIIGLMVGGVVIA
# BBB-PAMPA permeability = conditions: pH 7.4, 4 h, 25 °C, brain sink buffer; for Papp at 4 h, 100 μmol/L: PAMPA, pH 7.4, BBB–PAMPA permeability Papp (mean ± SD)
# hAChE = hAChE (Homo sapiens, UniProt P22303); assay: hAChE inhibition, Ellman's method; format: biochemical
# Chain of hAChE (P22303 32-614): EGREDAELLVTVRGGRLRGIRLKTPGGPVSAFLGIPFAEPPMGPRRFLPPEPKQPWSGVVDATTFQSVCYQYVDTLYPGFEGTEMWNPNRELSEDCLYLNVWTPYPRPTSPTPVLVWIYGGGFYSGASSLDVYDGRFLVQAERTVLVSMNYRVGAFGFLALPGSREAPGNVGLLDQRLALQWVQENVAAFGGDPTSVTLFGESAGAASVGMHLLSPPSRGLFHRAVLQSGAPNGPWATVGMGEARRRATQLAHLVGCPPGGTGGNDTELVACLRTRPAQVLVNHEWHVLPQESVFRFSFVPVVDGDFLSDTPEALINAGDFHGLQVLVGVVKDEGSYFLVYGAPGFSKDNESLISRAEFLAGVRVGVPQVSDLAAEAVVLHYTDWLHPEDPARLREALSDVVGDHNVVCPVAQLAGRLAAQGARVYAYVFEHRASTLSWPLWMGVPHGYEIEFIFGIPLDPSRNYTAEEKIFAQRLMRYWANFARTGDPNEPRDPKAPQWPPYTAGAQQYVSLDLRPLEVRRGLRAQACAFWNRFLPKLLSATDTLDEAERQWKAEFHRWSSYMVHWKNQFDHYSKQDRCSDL
# mice = assay: Rotarod test; format: in vivo; conditions: 2.5 mg/kg
# [4] = system: scopolamine-induced amnesic mice; assay: Passive avoidance; format: in vivo; conditions: doses of one and 2 mg/kg; P < 0.001
# murine AChE = conditions: cited from earlier work
compound,measurement,setting,value
CNC1=Nc2ccc(Cl)cc2C(c2ccccc2)=[N+]([O-])C1 [chlordiazepoxide],Ki,[1]; read-out: eeAChE Ki,50 ± 7 µM
same,Ki,[2]; read-out: eqBChE Ki,0.3 ± 0.04 µM
"C#CCN1CCN(CCCOc2cccc3cc(/C=[N+](\[O-])Cc4ccccc4)c(Cl)nc23)CC1 [QN 8, (Z)-N-Benzyl-1-(2-chloro-8-(3-(4-(prop-2-yn-1-yl)piperazin-1-yl)propoxy)quinolin-3-yl)methanimine oxide]",IC50,hMAO-A,14.9 ± 1.2 µM
same,IC50,hMAO-B,13.8 ± 1.8 µM
same,IC50,hBChE,14.8 ± 2.1 µM
"C#CCN1CCN(CCCOc2nc3c(OC)cccc3cc2/C=[N+](\[O-])Cc2ccccc2)CC1 [QN 4, (Z)-N-Benzyl-1-(8-methoxy-2-(3-(4-(prop-2-yn-1-yl)piperazin-1-yl)propoxy)quinolin-3-yl)methanimine oxide]",IC50,hBChE,3.06 ± 0.29 µM
"C#CCN1CCN(CCCOc2cccc3ccc(/C=[N+](\[O-])C(C)(C)C)nc23)CC1 [QN 15, (Z)-N-tert-Butyl-1-(8-(3-(4-(prop-2-yn-1-yl)piperazin-1-yl)propoxy)quinolin-2-yl)methanimine oxide]",Radical-scavenging DPPH assay EC50,[3],"n.a. ^d (n.a., not active–% DPPH reduced at 100 μmol/L concentration lower than 10%)"
same,Inhibition of Aβ1–42 aggregation,Aβ1–42,"n.i. ^e (n.i., no inhibition <20%)"
same,"Papp at 4 h, 100 μmol/L",BBB-PAMPA permeability,72.2 ± 2.7 ×10⁻⁶ cm/s
same,BBB–PAMPA permeability −LogPe,BBB-PAMPA permeability,4.1 log [cm/s]
"CC(C)(C)/[N+]([O-])=C/c1cc2cccc(O)c2nc1Cl [QN 11, (Z)-N-tert-Butyl-1-(2-chloro-8-hydroxyquinolin-3-yl)methanimine oxide]",IC50,hBChE,12.4 ± 0.7 µM
"C#CCN1CCN(CCCOc2nc3c(OC)cccc3cc2/C=[N+](\[O-])C(C)(C)C)CC1 [QN 3, (Z)-N-tert-Butyl-1-(8-methoxy-2-(3-(4-(prop-2-yn-1-yl)piperazin-1-yl)propoxy)quinolin-3-yl)methanimine oxide]",IC50,hBChE,2.06 ± 0.04 µM
"[O-]/[N+](=C\c1cc2cccc(OCCCN3CCCCC3)c2nc1Cl)Cc1ccccc1 [QN 6, (Z)-N-Benzyl-1-(2-chloro-8-(3-(piperidin-1-yl)propoxy)quinolin-3-yl)methanimine oxide]",IC50,hMAO-A,106 ± 3.7 µM
same,IC50,hMAO-B,50.4 ± 4.5 µM
same,IC50,hAChE,68.6 ± 13.6 µM
same,IC50,hBChE,10.2 ± 1.1 µM
"[O-]/[N+](=C\c1cc2cccc(O)c2nc1Cl)Cc1ccccc1 [QN 12, (Z)-N-Benzyl-1-(2-chloro-8-hydroxyquinolin-3-yl)methanimine oxide]",IC50,hBChE,10.7 ± 0.7 µM
"CCN(C)C(=O)Oc1cccc([C@H](C)N(C)C)c1 [rivastigmine, reference compound]",motor effects shortly after administration,mice,caused muscle tremor and transient motor coordination deficits
same,step-through latency in retention trial versus scopolamine-treated control,[4],significant differences
"C#CCN1CCN(CCCOc2cccc3cc(/C=[N+](\[O-])C(C)(C)C)c(Cl)nc23)CC1 [QN 7, (Z)-N-tert-Butyl-1-(2-chloro-8-(3-(4-(prop-2-yn-1-yl)piperazin-1-yl)propoxy)quinolin-3-yl)methanimine oxide]",IC50,hBChE,13.3 ± 0.9 µM
"COc1cccc2cc(/C=[N+](\[O-])Cc3ccccc3)c(OCCCN3CCCCC3)nc12 [QN 2, (Z)-N-Benzyl-1-(8-methoxy-2-(3-(piperidin-1-yl)propoxy)quinolin-3-yl)methanimine oxide]",IC50,hAChE,39.6 ± 6.1 µM
same,IC50,hBChE,0.415 ± 0.0167 µM
"Oc1ccc(/C=C/c2cc(O)cc(O)c2)cc1 [resveratrol, reference compound]",EC50,[3],50.1 µM
"COc1cccc2cc(/C=[N+](\[O-])C(C)(C)C)c(OCCCN3CCCCC3)nc12 [QN 1, (Z)-N-tert-Butyl-1-(8-methoxy-2-(3-(piperidin-1-yl)propoxy)quinolin-3-yl)methanimine oxide]",IC50,hBChE,0.707 ± 0.0454 µM
"COc1cccc2cc(/C=[N+](\[O-])C(C)(C)C)c(Cl)nc12 [QN 9, (Z)-N-tert-Butyl-1-(2-chloro-8-methoxyquinolin-3-yl)methanimine oxide]",IC50,hBChE,15.2 ± 1.1 µM
"CC(C)(C)/[N+]([O-])=C/c1ccccc1 [PBN, α-phenyl-tert-butylnitrone]",hAChE inhibition (in words),hAChE,no inhibition
same,murine AChE Ki′,murine AChE,2990 µM
same,Ki,murine AChE; read-out: murine AChE Ki,580 µM
same,eeAChE inhibition (in words),[1],no inhibition
same,IC50,[2]; read-out: eqBChE IC50,478 ± 38 µM
"C#CCN1CCN(CCCOc2cccc3ccc(C=O)nc23)CC1 [QN 32, 8-(3-(4-(Prop-2-yn-1-yl)piperazin-1-yl)propoxy)quinoline-2-carbaldehyde]",Radical-scavenging DPPH assay EC50,[3],"n.a. ^d (n.a., not active–% DPPH reduced at 100 μmol/L concentration lower than 10%)"
same,Inhibition of Aβ1–42 aggregation,Aβ1–42,40.7 ± 2.4%∗
same,"Papp at 4 h, 100 μmol/L",BBB-PAMPA permeability,50.3 ± 2.8 ×10⁻⁶ cm/s
same,BBB–PAMPA permeability −LogPe,BBB-PAMPA permeability,4.3 log [cm/s]
"O=Cc1ccc2cccc(O)c2n1 [QN 30, 8-hydroxyquinoline-2-carbaldehyde]",IC50,hMAO-B,43.9 ± 3.4 µM
"CC(C)(C)/[N+]([O-])=C/c1cc2cccc(OCCCN3CCCCC3)c2nc1Cl [QN 5, (Z)-N-tert-Butyl-1-(2-chloro-8-(3-(piperidin-1-yl)propoxy)quinolin-3-yl)methanimine oxide]",IC50,hMAO-A,113 ± 13.2 µM
same,IC50,hAChE,44.7 ± 4.8 µM
same,IC50,hBChE,5.57 ± 0.46 µM
"CC(C)(C)/[N+]([O-])=C/c1ccc2cccc(O)c2n1 [QN 18, (Z)-N-tert-Butyl-1-(8-hydroxyquinolin-2-yl)methanimine oxide]",EC50,[3],119 ± 1.2 µM
same,Inhibition of Aβ1–42 aggregation,Aβ1–42,"n.i. ^e (n.i., no inhibition <20%)"
same,"Papp at 4 h, 100 μmol/L",BBB-PAMPA permeability,43.7 ± 4.1 ×10⁻⁶ cm/s
same,BBB–PAMPA permeability −LogPe,BBB-PAMPA permeability,4.4 log [cm/s]
